According to article PMC11641755, “Features of Highly Homologous T-Cell Receptor Repertoire in the Immune Response to Mutations in Immunogenic Epitopes” (International Journal of Molecular Sciences, 2024):

Experiments:
[1] = system: TCR NYN-2 (Jurkat E6-1 TPR cells); format: cell-based, human
[2] = system: TCR NYN-3 (Jurkat E6-1 TPR cells); format: cell-based, human
[3] = system: NYN peptide-specific TCRs (NYN-1 to NYN-4 Jurkat E6-1 TPR cell lines); format: cell-based, human
TCR^NYN-II = conditions: ref 20 (Deng et al.); cited from earlier work
[4] = system: TCR NYN-4 (Jurkat E6-1 TPR cells); assay: Jurkat E6-1 TPR NFAT-eGFP reporter activation, transgenic TCR NYN-4, peptide-loaded K562-A*24:02; format: cell-based, human
[5] = system: TCR NYN-1 (Jurkat E6-1 TPR cells); format: cell-based, human
TCR^NYN-I = conditions: ref 20 (Deng et al.); cited from earlier work

## NYDYLYRLF [N450D]
[1]
  effect of the mutation on response / affinity of NYN-2 (in words): increased the affinity
[2]
  effect of the mutation on response / affinity of NYN-3 (in words): increased the affinity
[3]
  effect of the mutation on the T-cell response / recognition (in words): did not affect the T-cell response

## NYKYLYRLF [N450K]
TCR^NYN-II
  recognition / response of TCR^NYN-II (in words): remained preserved
[4]; TCR NYN-4, from EC50 values
  reduction in the recognition compared to wild-type NYN: up to 400 fold
[5]
  effect of the mutation on response / affinity of NYN-1 (in words): remained preserved
TCR^NYN-I
  recognition / response of TCR^NYN-I (in words): remained preserved

## NYNYLYRFF [L455F]
[1]; TCR NYN-2, from EC50 values
  reduction in the recognition compared to wild-type NYN: 23 fold
[3]
  effect of the mutation on the T-cell response / recognition (in words): did not affect the T-cell response

## NYNYLYRLL [F456L]
[3]
  effect of the mutation on the T-cell response / recognition (in words): did not affect the T-cell response

## NYNYMYRLF [L452M]
[3]
  effect of the mutation on the T-cell response / recognition (in words): did not affect the T-cell response

## VYFLQSINF
[4]; NYN-4 cell line, K562 loaded with 0.8 μM peptide
  GFP expression compared to NYN: 1.5 times lower
[1]; NYN-2 cell line, K562 loaded with 0.8 μM peptide
  GFP expression compared to NYN: the same level of GFP expression as NYN
[5]; NYN-1 cell line, K562 loaded with 0.8 μM peptide
  GFP expression compared to NYN: the same level of GFP expression as NYN
[2]; NYN-3 cell line, K562 loaded with 0.8 μM peptide
  GFP expression compared to NYN: 1.5 times lower
[3]; K562 loaded with 0.8 μM of each epitope
  recognition by all NYN-specific TCRs (cross-reactivity): recognized
